Data from US8293914B2, “4-OXO,1-4-dihydroquinoline M1 receptor positive allosteric modulators” (Merck Sharp & Dohme Corp., priority 2008, dated 2012).
pEC50: −log10 of the molar value.

Target: T1, acetylcholine muscarinic M1 receptor (CHOnfat/hM1 cells) (Homo sapiens, UniProt P11229)
T1 construct: expressed in transfected cells; host or cells: CHOnfat (CHO) cells expressing hM1
T1 sequence (P11229 1-460): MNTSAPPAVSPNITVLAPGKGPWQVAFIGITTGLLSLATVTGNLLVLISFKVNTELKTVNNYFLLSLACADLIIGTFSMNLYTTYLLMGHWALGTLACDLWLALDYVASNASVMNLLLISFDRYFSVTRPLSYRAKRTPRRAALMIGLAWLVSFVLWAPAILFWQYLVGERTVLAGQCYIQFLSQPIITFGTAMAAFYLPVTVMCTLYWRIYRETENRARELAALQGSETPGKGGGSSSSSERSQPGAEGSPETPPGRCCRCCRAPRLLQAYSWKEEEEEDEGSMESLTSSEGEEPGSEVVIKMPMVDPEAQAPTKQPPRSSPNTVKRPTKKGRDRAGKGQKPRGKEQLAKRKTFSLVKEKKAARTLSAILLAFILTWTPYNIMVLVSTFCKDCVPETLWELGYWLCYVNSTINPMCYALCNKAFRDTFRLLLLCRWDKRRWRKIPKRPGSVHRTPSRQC
Experiment: muscarinic M1 FLIPR calcium assay for positive allosteric modulator activity (acetylcholine EC20)
Assay type: cell-based
Conditions: FLIPR intracellular Ca2+, 4 min preincubation, then EC20 acetylcholine (3 nM final), read-out: IP Value (inflection point)
Protocol: The assay studies the effect of one or several concentrations of test compounds on basal or acetylcholine-stimulated Ca^2+ levels using FLIPR.
Compounds are prepared and subjected to a preincubation period of 4 min. Thereafter, a single EC20 concentration of acetylcholine is added to each well (3 nM final). The intracellular Ca^2+ level of each sample is measured and compared to an acetylcholine control to determine any modulatory activity.
Cells: CHOnfat/hM1, hM2, hM3 or hM4 cells are plated 24 hr before the assay at a density of 18,000 cells/well (100 μL) in a 384 well plate. CHOnfat/hM1 and CHOnfat/hM3 Growth Medium: 90% DMEM (Hi Glucose); 10% HI FBS; 2 mM L-glutamine; 0.1 mM NEAA; Pen-Strep; and 1 mg/ml Geneticin, are added. For M2Gqi5CHOnfat and M4Gqi5CHOnfat cells, an additional 600 μg/ml hygromycin is added.
Buffers. […] Dye Loading Buffer: Assay Buffer plus 1% Fetal Bovine Serum and Fluo-4AM/Pluronic Acid Mixture. […] 20% Pluronic Acid Solution stock, with a concentration of 0.04% in Buffer, 0.02% in Assay.
65 μL of 2 mM Fluo-4AM are mixed with 130 μL of 20% Pluronic Acid. The resulting solution and 650 μL FBS is added to the assay buffer for a total volume of 65 mL. Positive Controls: 4-Br-A23187: 10 mM in DMSO; final concentration 10 μM. Acetylcholine: 10 mM in water, working stock at both 20 μM and 30 μM in assay buffer, final concentration of 10 μM. This is used to check the maximum stimulation of the CHOK1/hM1 cells. 20 μM (2×) acetylcholine is added in the preincubation part of the assay, and the 30 μM (3×) stock is added in the second part. (EC20)Acetylcholine: 10 mM in water, working stock of 9 nM (3×), and final concentration in assay is 3 nM. This is used after the preincubation with test compounds. Addition of the EC20 Acetylcholine to each well with a test compound will ascertain any modulator activity. 24 wells contain 3 nM Acetylcholine alone as a control.
Four 96-well plates are combined into a 384-well plate using Mosquito Nanolitre Pipetting System by transferring 1 μl of serial diluted compounds to each well, and 1 mM acetylcholine (100× stock concentration) were added as a control. Using Temo, 49 μl assay buffer is added to each well of the 384-well plate right before assay.
In a 96-well Whatman 2 ml Uniplate, 9 nM Acetylcholine (3×) is pipetted into wells corresponding to the screening compounds, and into control wells. The 30 μM acetylcholine control (3×) is added into control wells, and the 3× agonist plate is transferred into a 384-well plate.
Cells are washed three times with 100 μL, of buffer, leaving 30 μL of buffer in each well. Using Multimek, 30 μL of Dye Loading Buffer is added into each well and incubated at 37° C., 5% CO2 for up to one hr.
After 60 min, the cells are washed three times with 100 μL of buffer, leaving 30 μL of buffer in each well. The cell plate, screening plate, and agonist addition plates are placed on the platform in the FLIPR and the door is closed. A signal test to check background fluorescence and basal fluorescence signal is performed. Laser intensity is adjusted if necessary.
4 min of preincubation with the test compounds is provided to determine any agonist activity on the M1 receptor by comparison to the 1 mM acetylcholine control. After preincubation, the EC20 value of acetylcholine (3 nM final) is added to determine any modulator activity.
The inflection point is calculated from the FLIPR values, and is a measure of activity.

| pEC50 | SMILES |
| --- | --- |
| 6.69 | O=C(O)c1cn(Cc2ccc(-c3ccc(F)nc3)cn2)c2c(F)cccc2c1=O [Example 1, 5-{6-[(3-Carboxy-8-fluoro-4-oxoquinolin-1(4H)-yl)methyl]pyridine-3-yl}-2-fluoropyridinium] |
| 7.19 | CCn1cc(-c2ccc(Cn3cc(C(=O)O)c(=O)c4c(F)ccc(F)c43)nc2)cn1 [Example 2] |
| 6.31 | O=C(O)c1cn(Cc2ccc(-c3ccc(F)nc3)cn2)c2cccc(F)c2c1=O [Example 7] |
| 6.99 | Nc1ccc(-c2ccc(Cn3cc(C(=O)O)c(=O)c4c(F)cccc43)nc2)cn1 [Example 10] |
| 7.00 | O=C(O)c1cn(Cc2ccc(-c3ccc(N4CCOCC4)nc3)cn2)c2cccc(F)c2c1=O [Example 27] |
| 7.62 | Nc1cccc(-c2ccc(Cn3cc(C(=O)O)c(=O)c4cccc(F)c43)nc2)c1 [Example 55] |
| 5.72 | O=C(O)c1cn(Cc2ccc(-n3cccn3)cn2)c2c(F)cccc2c1=O [Example 68] |
| 7.00 | CS(=O)(=O)Nc1cccc(-c2ccc(Cn3cc(C(=O)O)c(=O)c4cccc(F)c43)nc2)c1 [Example 101] |
| 6.13 | O=C(O)c1cn(Cc2ccc(-c3ccc(F)cc3F)cn2)c2c(F)cccc2c1=O [Example 108] |
| 6.52 | COc1ccc(-c2ccc(Cn3cc(C(=O)O)c(=O)c4c(F)ccc(F)c43)nc2)cn1 [Example 134] |
| 6.94 | O=C(O)c1cn(Cc2ccc(-c3cnn(CC(F)(F)F)c3)cn2)c2c(F)ccc(F)c2c1=O [Example 156] |
| 5.65 | O=C(O)c1cn(Cc2cccc(-n3cccn3)n2)c2c(F)ccc(F)c2c1=O [Example 160] |
| 7.43 | Cn1ccc2cc(-c3ccc(Cn4cc(C(=O)O)c(=O)c5cccc(F)c54)cn3)ccc21 [Example 234] |
| 5.54 | O=C(O)c1cn(Cc2c(F)cncc2F)c2c(F)cccc2c1=O [Example 283] |
| 5.63 | O=C(O)c1cn(Cc2ncc(-c3ccccc3O)cn2)c2c(F)cccc2c1=O [Example 293] |
| 5.14 | O=C(O)c1cn(Cc2cnc(-c3ccncc3)cn2)c2c(F)cccc2c1=O [Example 315] |
| 6.42 | O=C(O)c1cn(Cc2ccc(-c3cccc(O)c3)nn2)c2c(F)cccc2c1=O [Example 319] |
| 5.06 | O=C(O)c1cn(Cc2ccc(-c3ccccc3F)nn2)c2c(F)cccc2c1=O [Example 329] |
| 5.28 | O=C(O)c1cn(Cc2ccc(N3CCC3)nn2)c2c(F)cccc2c1=O [Example 334] |
| 4.61 | C[S+]([O-])c1ccc(Cn2cc(C(=O)O)c(=O)c3cccc(F)c32)nn1 (stereo not shown) [Example 352] |
| 4.85 | O=C(O)c1cn(Cc2ccc(N3CCCCC3)nn2)c2c(F)cccc2c1=O [Example 372, 8-Fluoro-4-oxo-1-[(6-piperidin-1-ylpyridazin-3-yl)methyl]-1,4-dihydroquinoline-3-carboxylic acid] |
| ~4.10 | CS(=O)(=O)c1ccc(Cn2cc(C(=O)O)c(=O)c3cccc(F)c32)nn1 [Example 373, 8-Fluoro-1-{[6-(methylsulfonyl)pyridazin-3-yl]methyl}-4-oxo-1,4-dihydroquinoline-3-carboxylic acid] |
